# According to the supplement of paper PMC10307832:
# Tests used:
# Assay in all cases: relative viability (nuclei count vs DMSO), 5 days (fraction); higher = more cells survive
# NCI-H520 = conditions: first compound 2.53 µM
# Method in brief: (§1)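 Lung cancer cell lines were pin-tool dosed in 1536-well plates on the day after seeding, with either a lone drug or a fixed anchor-drug dose plus five library-drug doses (not always all listed) in √10 steps. Nuclei were counted on 4× images after 5 days. Relative viability is the ratio of treated-well to vehicle-well nuclei counts, with each value a median of duplicate plates.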
# EKVX = system: EKVX
# Method in brief: as §1
# LK-2 = system: LK-2
# Method in brief: as §1
# NCI-H460 = system: NCI-H460
# Method in brief: as §1
# NCI-H2228 = system: NCI-H2228
# Method in brief: as §1
# SW 1573 = system: SW 1573
# Method in brief: as §1
# NCI-H322M = system: NCI-H322M
# Method in brief: as §1
# H3255 = system: H3255
# Method in brief: as §1
# A-427 = system: A-427
# Method in brief: as §1
# NCI-H650 = system: NCI-H650
# Method in brief: as §1
# NCI-H596 = system: NCI-H596
# Method in brief: as §1
# NCI-H1650 = system: NCI-H1650
# Method in brief: as §1
smiles,measurement,setting,value
Cc1cnc(-c2cnc(NCCNc3ccc(C#N)cn3)nc2-c2ccc(Cl)cc2Cl)[nH]1 + N=C(N)NC(=N)NCCc1ccccc1 [Phenformin] (partner 250 µM),relative viability,NCI-H520,0.641
same,relative viability,EKVX; first compound 0.08 µM,0.192
same,relative viability,EKVX; first compound 0.253 µM,0.226
same,relative viability,EKVX; first compound 0.8 µM,0.196
same,relative viability,EKVX; first compound 2.53 µM,0.222
same,relative viability,LK-2; first compound 0.08 µM,0.549
same,relative viability,LK-2; first compound 0.253 µM,0.501
same,relative viability,LK-2; first compound 0.8 µM,0.379
same,relative viability,LK-2; first compound 2.53 µM,0.641
same,relative viability,NCI-H460; first compound 0.08 µM,0.551
same,relative viability,NCI-H460; first compound 0.253 µM,0.452
same,relative viability,NCI-H460; first compound 0.8 µM,0.513
same,relative viability,NCI-H460; first compound 2.53 µM,0.41
same,relative viability,NCI-H2228; first compound 0.08 µM,0.256
same,relative viability,NCI-H2228; first compound 0.253 µM,0.357
same,relative viability,NCI-H2228; first compound 0.8 µM,0.366
same,relative viability,NCI-H2228; first compound 2.53 µM,0.228
same,relative viability,SW 1573; first compound 0.08 µM,0.515
same,relative viability,SW 1573; first compound 0.253 µM,0.334
same,relative viability,SW 1573; first compound 0.8 µM,0.436
same,relative viability,SW 1573; first compound 2.53 µM,0.3
same,relative viability,NCI-H322M; first compound 0.08 µM,0.815
same,relative viability,NCI-H322M; first compound 0.253 µM,0.725
same,relative viability,NCI-H322M; first compound 0.8 µM,0.753
same,relative viability,NCI-H322M; first compound 2.53 µM,0.931
same,relative viability,H3255; first compound 0.08 µM,0.409
same,relative viability,H3255; first compound 0.253 µM,0.342
same,relative viability,H3255; first compound 0.8 µM,0.317
same,relative viability,H3255; first compound 2.53 µM,0.349
same,relative viability,A-427; first compound 0.08 µM,0.307
same,relative viability,A-427; first compound 0.253 µM,0.327
same,relative viability,A-427; first compound 0.8 µM,0.378
same,relative viability,A-427; first compound 2.53 µM,0.342
same,relative viability,NCI-H650; first compound 0.08 µM,0.468
same,relative viability,NCI-H650; first compound 0.253 µM,0.438
same,relative viability,NCI-H650; first compound 0.8 µM,0.489
same,relative viability,NCI-H650; first compound 2.53 µM,0.417
same,relative viability,NCI-H596; first compound 0.08 µM,0.834
same,relative viability,NCI-H596; first compound 0.253 µM,0.763
same,relative viability,NCI-H596; first compound 0.8 µM,0.595
same,relative viability,NCI-H596; first compound 2.53 µM,0.761
same,relative viability,NCI-H1650; first compound 0.08 µM,0.497
same,relative viability,NCI-H1650; first compound 0.253 µM,0.428
same,relative viability,NCI-H1650; first compound 0.8 µM,0.384
same,relative viability,NCI-H1650; first compound 2.53 µM,0.276
